Test [1] deals with Morus alba Diels-Alderase MaDA1 (Morus alba). As to the kind of experiment: crystal structure; untagged MaDA1 at about 10 mg/mL, sitting drop vapor diffusion at 18 °C, 0.1 M Bis-Tris pH 5.5, 25% PEG3350.
In the next test the target is T1, ancDADS.
T1 construct: N-terminal 6xHis-SUMO tag, Sf9 baculovirus
As to the kind of experiment: Lineweaver-Burk, UPLC product quantification. In kind it is biochemical. To be noted: competitive against moracin C (20–150 μM); 20 mM Tris-HCl pH 8.0; compound is also an alternative substrate.

The target of another test is T2, MaDA1 (Morus alba, UniProt A0AAN0NNN7).
T2 construct: N-terminal 6xHis-SUMO tag, Sf9 baculovirus; tag removed by TEV protease for crystallisation; dimer in crystal
T2 sequence (A0AAN0NNN7 24-539 limits assumed): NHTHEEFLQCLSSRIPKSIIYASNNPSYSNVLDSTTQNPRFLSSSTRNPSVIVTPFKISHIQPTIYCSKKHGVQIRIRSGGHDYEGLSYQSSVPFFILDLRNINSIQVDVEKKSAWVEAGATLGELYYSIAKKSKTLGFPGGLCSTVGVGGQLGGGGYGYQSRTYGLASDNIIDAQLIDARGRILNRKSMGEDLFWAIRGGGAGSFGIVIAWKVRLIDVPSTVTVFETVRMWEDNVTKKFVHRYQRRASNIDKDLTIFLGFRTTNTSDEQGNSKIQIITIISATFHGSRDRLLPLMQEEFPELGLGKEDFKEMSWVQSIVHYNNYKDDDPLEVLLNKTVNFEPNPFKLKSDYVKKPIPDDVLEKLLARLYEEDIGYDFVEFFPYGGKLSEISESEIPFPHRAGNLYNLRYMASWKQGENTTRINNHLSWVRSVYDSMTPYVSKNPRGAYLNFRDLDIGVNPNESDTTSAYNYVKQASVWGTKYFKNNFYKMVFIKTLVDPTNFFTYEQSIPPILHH
Put plainly: UPLC product assay. In kind it is biochemical. To be noted: oxidative cyclisation to moracin D; 20 mM Tris-HCl pH 8.0, 50 °C.

For the compound “Morus alba Diels-Alderase MaDA1 (enzyme)”, the stoichiometry N (as a rule, the number of molecules, sites or subunits per partner or assembly) in test [1] came out at 2.

As for `CC(C)=CCc1c(O)ccc(C(=O)/C=C/c2ccc(O)cc2O)c1O` [compound 4, morachalcone A], the Ki (as a rule, a measure of affinity in units of concentration, obtained from inhibition or displacement) on ancDADS stood at 7.34 µM. Take `CC(C)=CCc1c(O)cc(-c2cc3ccc(O)cc3o2)cc1O` [compound 1, moracin C]: the UPLC product assay result on MaDA1 was “two DAs (MaDA1 and MaDA4) and two DSs (MaDS1 and MaDS6) exhibit functional promiscuity”.
